Results from the RepoRT retention time repository.

assay: Waters ACQUITY UPLC BEH C18, 100 × 2.1 mm, 1.7 µm, 40 °C, 0.3 to 0.4 mL/min, estimated dead time 0.63 min; A: water + 0.1% formic acid; B: methanol + 0.1% formic acid; gradient (min/%B) 0/0.5 0.1/0.5 10/80 10.1/99.5 12/99.5; conditions: stereoisomer not certain

Question: With CC1CCC2(C(=O)OC3OC(COC4OC(CO)C(OC5OC(C)C(O)C(O)C5O)C(O)C4O)C(O)C(O)C3O)CCC3(C)C(=CCC4C5(C)CC(O)C(O)C(C)(CO)C5CCC43C)C2C1C (configuration not stated) as the compound, how does the LC retention time read?
Answer: 5.21 min

Question: For CC(C)CC(N)C(=O)NC(C)C(=O)O (configuration not stated), which LC retention time is on record?
Answer: 2.02 min

Question: For OCC=Cc1ccc(O)c(O)c1, which LC retention time is on record?
Answer: 3.18 min

Question: Which LC retention time does the source give for C1CCC(C23CC(CC4CCCNC42)C2CCCCN2C3)NC1 (configuration not stated) here?
Answer: 2.24 min

Question: With O=c1cc(-c2ccc(O)cc2)oc2cc(OC3OC(CO)C(O)C(O)C3O)cc(O)c12 (configuration not stated) as the compound, how does the LC retention time read?
Answer: 4.18 min

Question: Which LC retention time does the source give for Oc1cc(O)c2cc(OC3OCC(O)C(O)C3O)c(-c3ccc(O)c(O)c3)[o+]c2c1 (configuration not stated) here?
Answer: 3.01 min

Question: With O=C(O)C(Cc1ccccc1)NC(=O)C1CCCN1 (configuration not stated) as the compound, how does the LC retention time read?
Answer: 2.99 min

Question: Which LC retention time does the source give for CCCSSCC(NC(=O)CCC(N)C(=O)O)C(=O)NCC(=O)O (configuration not stated) here?
Answer: 3.78 min

Question: For O=C1CC(c2ccc(O)cc2)Oc2cc(O)ccc21 (configuration not stated), which LC retention time is on record?
Answer: 5.3 min

Question: With COc1cc(C2c3cc4c(cc3C(OC3OC5COC(C)OC5C(O)C3O)C3COC(=O)C23)OCO4)cc(OC)c1O (configuration not stated) as the compound, how does the LC retention time read?
Answer: 5.4 min

Question: Which LC retention time does the source give for COc1cc2ccc(=O)oc2cc1O here?
Answer: 4.24 min

Question: With CN1CCCC1c1cccnc1 (configuration not stated) as the compound, how does the LC retention time read?
Answer: 1.62 min

Question: With CC(C)C(O)(C(=O)OCC1=CCN2CCC(O)C12)C(C)O (configuration not stated) as the compound, how does the LC retention time read?
Answer: 2.75 min

Question: For COc1cc2c3cc1Oc1cc(ccc1O)CC1c4c(cc(OC)c(O)c4Oc4ccc(cc4)CC3N(C)CC2)CC[N+]1(C)C (configuration not stated), which LC retention time is on record?
Answer: 3.41 min

Question: Which LC retention time does the source give for CCC(C)C(N)C(=O)NC(CO)C(=O)O (configuration not stated) here?
Answer: 1.8 min

Question: With CC1CCC2(NC1)OC1CC3C4CC=C5CC(OC6OC(CO)C(O)C(OC7OC(CO)C(O)C(O)C7O)C6OC6OC(C)C(O)C(O)C6O)CCC5(C)C4CCC3(C)C1C2C (configuration not stated) as the compound, how does the LC retention time read?
Answer: 4.62 min

Question: With O=C(O)c1cc2c(c3c1c([N+](=O)[O-])cc1ccc(O)cc13)OCO2 as the compound, how does the LC retention time read?
Answer: 5.96 min

Question: With Oc1cc(O)c2ccc(-c3ccc(O)c(O)c3)[o+]c2c1 as the compound, how does the LC retention time read?
Answer: 3.59 min

Question: For C1CCN2CC3CC(CN4CCCCC34)C2C1 (configuration not stated), which LC retention time is on record?
Answer: 2.33 min

Question: For CS(=O)CCCCCCCCC#N (configuration not stated), which LC retention time is on record?
Answer: 3.03 min

Question: With O=C(O)c1cc(O)c2c(c1)C(C1c3cc(C(=O)O)cc(O)c3C(=O)c3c(OC4OC(CO)C(O)C(O)C4O)cccc31)c1cccc(OC3OC(CO)C(O)C(O)C3O)c1C2=O (configuration not stated) as the compound, how does the LC retention time read?
Answer: 3.82 min

Question: Which LC retention time does the source give for Nc1[nH]c(=O)[nH]c(=O)c1OC1OC(CO)C(OC2OC(CO)C(O)C(O)C2O)C(O)C1O (configuration not stated) here?
Answer: 2 min

Question: With COc1cc(C=CC(=O)OCC2OC(OC3C(c4c(O)cc5oc(-c6ccc(O)cc6)cc(=O)c5c4O)OC(CO)C(O)C3O)C(O)C(O)C2O)ccc1O (configuration not stated) as the compound, how does the LC retention time read?
Answer: 4.21 min

Question: For CC1OC(Oc2cc3c(O)cc(O)cc3[o+]c2-c2ccc(O)c(O)c2)C(O)C(O)C1O (configuration not stated), which LC retention time is on record?
Answer: 3.18 min

Question: Which LC retention time does the source give for C=C1CC23CC4C5C6(C)CC(O)CC57C(C2C(O)C1C(O)C37)N4C6 (configuration not stated) here?
Answer: 3.07 min

Question: Which LC retention time does the source give for COc1ccc(C2CC(=O)c3c(O)cc(OC4OC(CO)C(O)C(O)C4OC4OC(C)C(O)C(O)C4O)cc3O2)cc1 (configuration not stated) here?
Answer: 5.42 min

Question: For CC(=O)OCC1OC(Oc2c(-c3ccc(O)c(O)c3)oc3cc(O)cc(O)c3c2=O)C(O)C(O)C1O (configuration not stated), which LC retention time is on record?
Answer: 4.42 min

Question: Which LC retention time does the source give for COC(=O)C1CC23CCCN4CCC5(c6ccccc6NC15CC2)C43 (configuration not stated) here?
Answer: 3.92 min

Question: For CC(C)=CCc1cc(C2CC(=O)c3c(O)cc(O)cc3O2)ccc1O (configuration not stated), which LC retention time is on record?
Answer: 8.11 min

Question: For Nc1nc2c(ncn2C2OC(CO)C(O)C2O)c(=O)[nH]1 (configuration not stated), which LC retention time is on record?
Answer: 1.93 min

Question: Which LC retention time does the source give for C=CC1CN2CCc3c([nH]c4ccccc34)C2CC1C(=COC)C(=O)OC (configuration not stated) here?
Answer: 5.68 min

Question: Which LC retention time does the source give for O=c1c(O)c(-c2ccc(O)c(O)c2)oc2cc(O)cc(O)c12 here?
Answer: 5.37 min

Question: Which LC retention time does the source give for CCN1CC2(OC(=O)c3ccccc3N)CCC(OC)C34C1C(CC23)C1(O)CC(OC)C2CC4C1(O)C2OC (configuration not stated) here?
Answer: 4.95 min

Question: For CC(CCC1(O)OC2CC3C4CCC5CC(OC6OC(CO)C(O)C(O)C6OC6OC(CO)C(O)C(O)C6O)C(O)CC5(C)C4CCC3(C)C2C1C)COC1OC(CO)C(O)C(O)C1O (configuration not stated), which LC retention time is on record?
Answer: 4.64 min

Question: With COc1ccc(CC2c3cc(OC)c(OC)cc3CCN2C)cc1OC (configuration not stated) as the compound, how does the LC retention time read?
Answer: 4.26 min

Question: Which LC retention time does the source give for C=CC1C(OC2OC(CO)C(O)C(O)C2O)OC=C2C(=O)N3Cc4cc5ccccc5nc4C3CC21 (configuration not stated) here?
Answer: 5.27 min

Question: For O=C(C=Cc1ccc(O)c(O)c1)c1ccc(OC2OC(CO)C(O)C(O)C2O)c(O)c1O (configuration not stated), which LC retention time is on record?
Answer: 4.1 min

Question: With COc1cc(C=CC(=O)NCCCCN=C(N)N)cc(OC)c1O as the compound, how does the LC retention time read?
Answer: 3.27 min

Question: Which LC retention time does the source give for CSCC1OC(n2cnc3c(N)ncnc32)C(O)C1O (configuration not stated) here?
Answer: 2.7 min

Question: For CC1OC(Oc2cc(O)c3c(=O)c(OC4OC(CO)C(O)C(O)C4O)c(-c4ccc(O)cc4)oc3c2)C(O)C(O)C1O (configuration not stated), which LC retention time is on record?
Answer: 3.7 min

Question: With CCCCCCCC(O)SCC(NC(=O)CCC(N)C(=O)O)C(=O)NCC(=O)O (configuration not stated) as the compound, how does the LC retention time read?
Answer: 4.58 min

Question: Which LC retention time does the source give for CC(N)C(=O)NC(Cc1ccccc1)C(=O)O (configuration not stated) here?
Answer: 2.84 min

Question: Which LC retention time does the source give for CC1(C)CC(=O)C2(C)CCC3(C)C(=CCC4C5(C)CCC(OC6OC(C(=O)O)C(O)C(O)C6OC6OC(CO)C(O)C(O)C6O)C(C)(CO)C5CCC43C)C2C1 (configuration not stated) here?
Answer: 7.84 min

Question: Which LC retention time does the source give for OCC1OC(Oc2cc3c(O)cc(O)cc3[o+]c2-c2ccc(O)c(O)c2)C(O)C(O)C1O (configuration not stated) here?
Answer: 2.91 min

Question: Which LC retention time does the source give for CCC1C2CC3C4N(C)c5ccccc5C45CC(C2C5O)N3C1O (configuration not stated) here?
Answer: 4.13 min

Question: For COCC=C1CN2C3CC45C(=Nc6c(OC)cc(OC)c(OC)c64)OCC3C1CC25 (configuration not stated), which LC retention time is on record?
Answer: 3.82 min

Question: Which LC retention time does the source give for O=C1NCCc2c1[nH]c1ccccc21 here?
Answer: 5.53 min

Question: Which LC retention time does the source give for CC(C)=CCCC(C)(O)C1CCC2(C)C1C(O)CC1C3(C)CCC(O)C(C)(C)C3C(OC3OC(CO)C(O)C(O)C3OC3OC(CO)C(O)C(O)C3O)CC12C (configuration not stated) here?
Answer: 5.94 min

Question: With O=c1cc(-c2ccc(O)c(O)c2)oc2c(C3OC(CO)C(O)C(O)C3O)c(O)c(C3OC(CO)C(O)C(O)C3O)c(O)c12 (configuration not stated) as the compound, how does the LC retention time read?
Answer: 3.1 min

Question: For COc1ccc2c(c1)OC1c3ccc(O)cc3OCC21 (configuration not stated), which LC retention time is on record?
Answer: 5.92 min

Question: Which LC retention time does the source give for CC1OC(OCC2OC(Oc3cc4c(O)cc(O)cc4[o+]c3-c3ccc(O)c(O)c3)C(O)C(O)C2O)C(O)C(O)C1O (configuration not stated) here?
Answer: 2.94 min

Question: For O=c1cc(-c2ccc(O)cc2)oc2c(C3OC(CO)C(O)C(O)C3O)c(O)c(C3OCC(O)C(O)C3O)c(O)c12 (configuration not stated), which LC retention time is on record?
Answer: 3.41 min

Question: For CC(CSCC(NC(=O)CCC(N)C(=O)O)C(=O)NCC(=O)O)C(=O)O (configuration not stated), which LC retention time is on record?
Answer: 2.36 min

Question: Which LC retention time does the source give for O=c1c(OC2OCC(O)C(O)C2O)c(-c2cc(O)c(O)c(O)c2)oc2cc(O)cc(O)c12 (configuration not stated) here?
Answer: 3.9 min

Question: For OCC1OC(OCC2OC(O)(CO)C(O)C2O)C(O)C(O)C1O (configuration not stated), which LC retention time is on record?
Answer: 1.74 min

Question: Which LC retention time does the source give for COc1cc(C2c3cc4c(cc3C(O)C3COC(=O)C23)OCO4)cc(OC)c1OC (configuration not stated) here?
Answer: 6.26 min

Question: For C=CCS(=O)CC(NCC1(O)OCC(O)C(O)C1O)C(=O)O (configuration not stated), which LC retention time is on record?
Answer: 1.66 min

Question: With COC(=O)C1C2CC3c4[nH]c5cc(OC)ccc5c4CCN3CC2CC(OC(=O)c2cc(OC)c(OC)c(OC)c2)C1OC (configuration not stated) as the compound, how does the LC retention time read?
Answer: 6.12 min

Question: With CC(C)=CCCC(C)(O)C1CCC2(C)C1C(O)CC1C3(C)CCC(O)C(C)(C)C3C(OC3OC(CO)C(O)C(O)C3O)CC12C (configuration not stated) as the compound, how does the LC retention time read?
Answer: 6.29 min

Question: For CS(=O)C=CCCN=C=S (configuration not stated), which LC retention time is on record?
Answer: 3.77 min

Question: Which LC retention time does the source give for COc1c(O)cc2oc(-c3ccc(O)c(O)c3)c(OC3OC(COC4OC(CO)C(O)C(O)C4O)C(O)C(O)C3O)c(=O)c2c1O (configuration not stated) here?
Answer: 3.63 min

Question: For C=CCSCC(NC(=O)CCC(N)C(=O)O)C(=O)O (configuration not stated), which LC retention time is on record?
Answer: 2.98 min
